Results as given in ChEMBL document CHEMBL5329182, “Design, Synthesis, anti-inflammatory activity Evaluation, preliminary exploration of the Mechanism, molecule Docking, and structure-activity relationship analysis of batatasin III analogs” (Bioorg Med Chem Lett, 2023).

Experiments:
RAW264.7 [1] = experiment: Antiinflammatory activity against mouse RAW264.7 cells assessed as inhibition of NO release; assay type: functional, cell-based
[2] = Cytotoxicity against mouse RAW264.7 cells assessed as cell survival rate at 50 uM by MTT assay relative to control; assay type: toxicity, cell-based; details: read-out: Activity
RAW264.7 [3] = experiment: Antiinflammatory activity against mouse RAW264.7 cells assessed as inhibition of NO production at 50 uM relative to control; assay type: functional
RAW264.7 [4] = experiment: Antiinflammatory activity against LPS-stimulated mouse RAW264.7 cells assessed as NO emission at 50 uM (reference value: 20.56 +/-0.06%); assay type: functional
RAW264.7 [5] = experiment: Antiinflammatory activity against LPS-stimulated mouse RAW264.7 cells assessed as NO emission at 20 uM (reference value: 20.56 +/-0.06%); assay type: functional
RAW264.7 [6] = experiment: Antiinflammatory activity against LPS-stimulated mouse RAW264.7 cells assessed as reduction in beta-catenin protein expression by Western blot analysis; assay type: functional, cell-based; details: dose 5-20 µM
RAW264.7 [7] = experiment: Antiinflammatory activity against mouse RAW264.7 cells assessed as inhibition of NO production at 20 uM relative to control; assay type: functional
[8] = Cytotoxicity against mouse RAW264.7 cells assessed as reduction in cell survival by MTT assay; assay type: toxicity, cell-based
RAW264.7 [9] = experiment: Antiinflammatory activity against LPS-stimulated mouse RAW264.7 cells assessed as reduction in iNOS protein expression by Western blot analysis; assay type: functional, cell-based; details: dose 5-20 µM
[10] = Cytotoxicity against mouse RAW264.7 cells assessed as cell survival rate at 20 uM by MTT assay relative to control; assay type: toxicity, cell-based; details: read-out: Activity
[11] = target: Transcription factor p65 (Mus musculus) (UniProt Q04207); experiment: Inhibition of p65 phosphorylation in LPS-stimulated mouse RAW264.7 cells by Western blot analysis; assay type: cell-based; details: dose 5-20 µM
Transcription factor p65 (Mus musculus), sequence (Q04207 whole entry): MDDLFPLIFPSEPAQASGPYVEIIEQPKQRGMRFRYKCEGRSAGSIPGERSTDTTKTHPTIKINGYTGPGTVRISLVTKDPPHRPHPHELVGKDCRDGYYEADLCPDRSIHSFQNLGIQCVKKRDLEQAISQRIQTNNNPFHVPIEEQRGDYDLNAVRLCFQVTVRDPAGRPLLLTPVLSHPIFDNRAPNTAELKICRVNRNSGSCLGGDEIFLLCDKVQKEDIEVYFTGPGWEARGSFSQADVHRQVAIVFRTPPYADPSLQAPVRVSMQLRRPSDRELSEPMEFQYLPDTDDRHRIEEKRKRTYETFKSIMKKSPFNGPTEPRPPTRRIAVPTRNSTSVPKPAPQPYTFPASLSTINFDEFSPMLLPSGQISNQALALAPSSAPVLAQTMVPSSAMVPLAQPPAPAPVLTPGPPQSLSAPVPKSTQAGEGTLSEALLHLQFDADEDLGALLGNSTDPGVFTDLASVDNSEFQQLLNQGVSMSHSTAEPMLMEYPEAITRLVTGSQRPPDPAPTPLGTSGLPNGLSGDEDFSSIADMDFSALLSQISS

SMILES | IC50 (RAW264.7 [1]) | inhibition [11] | viability at 50 µM [2] | inhibition at 50 µM (RAW264.7 [3]) | Activity (RAW264.7 [4]) | Activity (RAW264.7 [5]) | Activity (RAW264.7 [6]) | inhibition at 20 µM (RAW264.7 [7]) | CC50 [8] | Activity (RAW264.7 [9]) | viability at 20 µM [10]
COc1cc(/C=C/c2ccc(C(C)(C)C)cc2)cc(OC)c1 | > 50 µM |  | 99.3% | 14% | 17.68 µM |  |  |  |  |  | 
O=[N+]([O-])c1cccc(/C=C/c2cc(O)cc(O)c2)c1 | 44.5 µM |  | 104% | 25.5% | 15.32 µM |  |  |  |  |  | 
COc1cc(/C=C/c2cccc([N+](=O)[O-])c2)cc(OC)c1 | > 50 µM |  | 104% | 14.9% | 17.5 µM |  |  |  |  |  | 
COc1cc(/C=C/c2cc(C(C)(C)C)cc(C(C)(C)C)c2)cc(OC)c1 | > 50 µM |  | 104% | 17.2% | 17.02 µM |  |  |  |  |  | 
Oc1cc(O)cc(CCc2ccccc2)c1 [DIHYDROPINOSYLVIN] | > 50 µM |  | 102% | 18% | 16.86 µM |  |  |  |  |  | 
COc1cc(/C=C/c2cccc(C(F)(F)F)c2)cc(OC)c1 | > 50 µM |  | 109% | 14.1% | 17.66 µM |  |  |  |  |  | 
C[C@@H]1C[C@H]2[C@@H]3CCC4=CC(=O)C=C[C@]4(C)[C@@]3(F)[C@@H](O)C[C@]2(C)[C@@]1(O)C(=O)CO [DEXAMETHASONE] | > 50 µM |  | 107% | 26.9% | 15.05 µM |  |  |  |  |  | 
Oc1cccc(/C=C/c2cc(O)cc(O)c2)c1 | 54 µM |  | 110% | 22.8% | 15.88 µM |  |  |  |  |  | 
Oc1cccc(CCc2cc(O)cc(O)c2)c1 | 48.2 µM |  | 110% | 31.4% | 14.12 µM |  |  |  |  |  | 
CC(C)(C)c1ccc(CCc2cc(O)cc(O)c2)cc1 | 23.7 µM |  | 106% | 52.6% | 9.74 µM |  |  |  |  |  | 
CC(C)(C)c1cc(CCc2cc(O)cc(O)c2)cc(C(C)(C)C)c1 | 13 µM | Dose-Dependent Effect |  |  |  | 10.08 µM | Dose-Dependent Effect | 51% | 34.3 µM | Dose-Dependent Effect | 99.1%

Continued, in another order:

IC50 (RAW264.7 [1]) | inhibition [11] | SMILES | viability at 50 µM [2] | inhibition at 50 µM (RAW264.7 [3]) | Activity (RAW264.7 [4]) | Activity (RAW264.7 [5]) | Activity (RAW264.7 [6]) | inhibition at 20 µM (RAW264.7 [7]) | CC50 [8] | Activity (RAW264.7 [9]) | viability at 20 µM [10]
> 50 µM |  | COc1cccc(/C=C/c2cc(OC)cc(OC)c2)c1 | 97.2% | 18.2% | 16.82 µM |  |  |  |  |  | 
> 50 µM |  | COc1cc(CCc2ccccc2)cc(OC)c1 | 99.5% | 6.16% | 19.3 µM |  |  |  |  |  | 
55.4 µM |  | COc1cc(CCc2cccc(N)c2)cc(OC)c1 | 104% | 26.1% | 15.2 µM |  |  |  |  |  | 
> 50 µM |  | COc1cc(/C=C/c2cccc(Cl)c2)cc(OC)c1 | 97.8% | 7.82% | 18.96 µM |  |  |  |  |  | 
> 50 µM |  | COc1cc(O)cc(CCc2cccc(O)c2)c1 [BATATASIN III] | 106% | 21.5% | 16.14 µM |  |  |  |  |  | 
> 50 µM |  | COc1cc(CCc2ccco2)cc(OC)c1 | 103% | -2.98% | 21.18 µM |  |  |  |  |  | 
> 50 µM |  | COc1cc(CCc2ccc(C(C)(C)C)cc2)cc(OC)c1 | 106% | 14.9% | 17.5 µM |  |  |  |  |  | 
> 50 µM |  | COc1cc(CCc2cc(C(C)(C)C)cc(C(C)(C)C)c2)cc(OC)c1 | 114% | 18.2% | 16.82 µM |  |  |  |  |  | 
> 50 µM |  | COc1cc(/C=C/c2cccc(C#N)c2)cc(OC)c1 | 114% | 11.4% | 18.22 µM |  |  |  |  |  | 
> 50 µM |  | COc1cc(CCc2cccc(C(F)(F)F)c2)cc(OC)c1 | 103% | 19.6% | 16.54 µM |  |  |  |  |  | 
> 50 µM |  | Oc1cc(O)cc(CCc2cccnc2)c1 | 98.9% | 12.2% | 18.06 µM |  |  |  |  |  | 
> 50 µM |  | COc1cc(/C=C/c2cccnc2)cc(OC)c1 | 97.7% | 22.5% | 15.94 µM |  |  |  |  |  | 
> 50 µM |  | COc1cc(CCc2cccnc2)cc(OC)c1 | 97.8% | 13.8% | 17.72 µM |  |  |  |  |  | 
> 50 µM |  | COc1cc(CCc2cccc(C#N)c2)cc(OC)c1 | 105% | -5.99% | 21.8 µM |  |  |  |  |  | 
58.3 µM |  | COc1cc(CCc2cccc(C)c2)cc(OC)c1 | 109% | 20.9% | 16.28 µM |  |  |  |  |  | 
